Reference: PubChem BioAssay AID330 (DTP/NCI, 2004)
“And” between values parts separate entries of the source, which are not always exact repeats. Identical values can stand only once. Inconclusive results and toxic doses are left out.

Test system: P388 leukemia ip, CD2F1 mice, survival T/C
Experiment: NCI In Vivo Anticancer Drug Screen. Data for tumor model P388 Leukemia (intraperitoneal) in CD2F1 (CDF1) mice
Details: endpoint: median survival time, higher = longer survival
Procedure, shortened: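 Mice carrying the transplanted tumor received test compound or vehicle. Survival was recorded in each group, and the value is the treated-group measurement divided by that of the vehicle-treated control group.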

[1] = dose: 60.0 mg/kg/injection, schedule: Q01DX005 (ip), vehicle: saline with Tween-80
[2] = dose: 120.0 mg/kg/injection, schedule: Q01DX005 (ip), vehicle: saline with Tween-80
[3] = dose: 240.0 mg/kg/injection, schedule: Q01DX005 (ip), vehicle: saline with Tween-80
[4] = dose: 50.0 mg/kg/injection, schedule: Q01DX005 (ip), vehicle: Klucel (hydroxypropylcellulose) (HPC)
[5] = dose: 50.0 mg/kg/injection, schedule: Q01DX009 (ip), vehicle: saline with Tween-80
[6] = dose: 100.0 mg/kg/injection, schedule: Q01DX009 (ip), vehicle: saline with Tween-80
[7] = dose: 200.0 mg/kg/injection, schedule: Q01DX009 (ip), vehicle: saline with Tween-80

CC[C@H]1CN2CCc3cc(OC)c(OC)cc3[C@@H]2C[C@@H]1C[C@H]1NCCc2cc(OC)c(OC)cc21
T/C (dose: 1.0 mg/kg/injection, schedule: Q01DX009 (ip), vehicle: water): 112 % of control and 118 % of control
T/C (dose: 4.0 mg/kg/injection, schedule: Q01DX009 (ip), vehicle: water): 154 % of control
T/C (dose: 4.32 mg/kg/injection, schedule: Q04DX003 (ip), vehicle: saline): 118 % of control and 122 % of control
T/C (dose: 5.0 mg/kg/injection, schedule: Q04DX003 (ip), vehicle: saline): 121 % of control
T/C (dose: 5.18 mg/kg/injection, schedule: Q04DX002 (ip), vehicle: saline): 106 % of control
T/C (dose: 5.18 mg/kg/injection, schedule: Q04DX003 (ip), vehicle: saline): 122 % of control
T/C (dose: 7.2 mg/kg/injection, schedule: Q04DX003 (ip), vehicle: saline): 123 % of control
T/C (dose: 8.0 mg/kg/injection, schedule: Q01DX009 (ip), vehicle: water): 166 % of control and 183 % of control
T/C (dose: 8.64 mg/kg/injection, schedule: Q04DX003 (ip), vehicle: saline): 122 % of control
T/C (dose: 12.0 mg/kg/injection, schedule: Q04DX003 (ip), vehicle: saline): 153 % of control
T/C (dose: 14.4 mg/kg/injection, schedule: Q04DX002 (ip), vehicle: saline): 151 % of control and 156 % of control
T/C (dose: 14.4 mg/kg/injection, schedule: Q04DX003 (ip), vehicle: saline): 153 % of control
T/C (dose: 16.0 mg/kg/injection, schedule: Q01DX009 (ip), vehicle: water): 115 % of control
T/C (dose: 20.0 mg/kg/injection, schedule: Q04DX003 (ip), vehicle: saline): 169 % of control and 174 % of control and 175 % of control
T/C (dose: 24.0 mg/kg/injection, schedule: Q04DX002 (ip), vehicle: saline): 175 % of control and 177 % of control
T/C (dose: 24.0 mg/kg/injection, schedule: Q04DX003 (ip), vehicle: saline): 183 % of control and 213 % of control
T/C (dose: 33.3 mg/kg/injection, schedule: Q04DX003 (ip), vehicle: saline): 224 % of control and 94 % of control

COc1ccc2c(c1)c(-c1cc3ccccc3oc1=O)cn2C(=O)c1ccc(Cl)cc1
T/C [1]: 105 % of control
T/C [2]: 102 % of control
T/C [3]: 106 % of control

CCC12C=CCN3CCC4(c5cc(C6(C(=O)OC)CCCCCc7c6[nH]c6ccccc76)c(OC)cc5N(C)C4C(O)(C(=O)OC)C1OC(C)=O)C32 (stereo not drawn)
T/C (dose: 12.5 mg/kg/injection, schedule: Q01DX001 (ip), vehicle: distilled water + Tween-80): 106 % of control
T/C (dose: 25.0 mg/kg/injection, schedule: Q01DX001 (ip), vehicle: distilled water + Tween-80): 109 % of control
T/C (dose: 50.0 mg/kg/injection, schedule: Q01DX001 (ip), vehicle: distilled water + Tween-80): 106 % of control
T/C (dose: 100.0 mg/kg/injection, schedule: Q01DX001 (ip), vehicle: distilled water + Tween-80): 95 % of control
T/C (dose: 200.0 mg/kg/injection, schedule: Q01DX001 (ip), vehicle: distilled water + Tween-80): 95 % of control

COc1ccc(B(C)N2CCCCC2C)cc1 (stereo not drawn)
T/C (dose: 50.0 mg/kg/injection, schedule: Q01DX005 (ip), vehicle: saline with Tween-80): 102 % of control
T/C (dose: 100.0 mg/kg/injection, schedule: Q01DX005 (ip), vehicle: saline with Tween-80): 100 % of control
T/C (dose: 200.0 mg/kg/injection, schedule: Q01DX005 (ip), vehicle: saline with Tween-80): 98 % of control

O=C1CCC(c2nc3ccccc3[nH]2)N1Cc1csc(-c2ccccc2)n1 (stereo not drawn)
T/C [1]: 98 % of control
T/C [2]: 93 % of control
T/C [3]: 88 % of control

NC(N)=Nc1ccc(-c2cc3cc(N=C(N)N)ccc3s2)cc1
T/C (dose: 6.25 mg/kg/injection, schedule: Q01DX005 (ip), vehicle: Klucel (hydroxypropylcellulose) (HPC)): 108 % of control
T/C (dose: 12.5 mg/kg/injection, schedule: Q01DX005 (ip), vehicle: Klucel (hydroxypropylcellulose) (HPC)): 105 % of control
T/C (dose: 25.0 mg/kg/injection, schedule: Q01DX005 (ip), vehicle: Klucel (hydroxypropylcellulose) (HPC)): 115 % of control
T/C [4]: 168 % of control

CC1(CCl)Nc2ccccc2C(=O)N1c1ccc(Cl)cc1 (stereo not drawn)
T/C [5]: 94 % of control
T/C [6]: 95 % of control
T/C [7]: 89 % of control

CCOC(=O)NOP(=O)(N1CC1(C)C)N1CC1(C)C (stereo not drawn)
T/C (dose: 62.5 mg/kg/injection, schedule: Q01DX001 (ip), vehicle: saline + alcohol): 107 % of control
T/C (dose: 125.0 mg/kg/injection, schedule: Q01DX001 (ip), vehicle: saline + alcohol): 117 % of control
T/C (dose: 250.0 mg/kg/injection, schedule: Q01DX001 (ip), vehicle: other): 150 % of control
T/C (dose: 250.0 mg/kg/injection, schedule: Q01DX001 (ip), vehicle: saline + alcohol): 120 % of control
T/C (dose: 500.0 mg/kg/injection, schedule: Q01DX001 (ip), vehicle: other): 163 % of control
T/C (dose: 500.0 mg/kg/injection, schedule: Q01DX001 (ip), vehicle: saline + alcohol): 150 % of control

CCCCCCCCCC(O)(CSc1ccccc1)CSc1ccccc1
T/C [5]: 99 % of control
T/C [6]: 100 % of control
T/C [7]: 114 % of control

COC(=O)C1CCC2C(C1)OC1(CC(OC(=O)/C=C\c3ccccc3)C(C)CO1)C2(O)CO (stereo not drawn)
T/C (dose: 5.0 mg/kg/injection, schedule: Q01DX009 (ip), vehicle: saline + alcohol): 98 % of control
T/C (dose: 10.0 mg/kg/injection, schedule: Q01DX009 (ip), vehicle: saline + alcohol): 103 % of control
T/C (dose: 20.0 mg/kg/injection, schedule: Q01DX009 (ip), vehicle: saline + alcohol): 105 % of control
T/C (dose: 40.0 mg/kg/injection, schedule: Q01DX009 (ip), vehicle: saline + alcohol): 105 % of control

COC(=O)[C@@]12OC[C@@]34[C@@H](CC5=C(C)C(=O)C(O)=C[C@]5(C)[C@H]3[C@@H](O)[C@@H]1O)OC(=O)[C@H](OC(=O)/C=C(\C)C(C)(C)OC(C)=O)[C@@H]24
T/C (dose: 0.25 mg/kg/injection, schedule: Q01DX009 (ip), vehicle: saline + alcohol): 106 % of control
T/C (dose: 0.5 mg/kg/injection, schedule: Q01DX009 (ip), vehicle: saline + alcohol): 110 % of control and 123 % of control
T/C (dose: 4.0 mg/kg/injection, schedule: Q01DX009 (ip), vehicle: saline + alcohol): 157 % of control and 159 % of control
T/C (dose: 8.0 mg/kg/injection, schedule: Q01DX009 (ip), vehicle: saline + alcohol): 175 % of control

CCOP(=O)(Nc1ccc(C)cc1)OCC
T/C (dose: 100.0 mg/kg/injection, schedule: Q01DX001 (ip), vehicle: saline): 104 % of control
T/C (dose: 200.0 mg/kg/injection, schedule: Q01DX001 (ip), vehicle: saline): 109 % of control
T/C (dose: 400.0 mg/kg/injection, schedule: Q01DX001 (ip), vehicle: saline): 105 % of control

O=C(Nc1ccccc1)/C(Cl)=C(/Cl)C(=O)C(Cl)(Cl)Cl
T/C (dose: 12.5 mg/kg/injection, schedule: Q01DX009 (ip), vehicle: distilled water + Tween-80): 103 % of control
T/C (dose: 25.0 mg/kg/injection, schedule: Q01DX009 (ip), vehicle: distilled water + Tween-80): 103 % of control

c1ccc2c(c1)C1OC2c2ccccc21
T/C [4]: 99 % of control
T/C (dose: 100.0 mg/kg/injection, schedule: Q01DX005 (ip), vehicle: Klucel (hydroxypropylcellulose) (HPC)): 108 % of control
T/C (dose: 200.0 mg/kg/injection, schedule: Q01DX005 (ip), vehicle: Klucel (hydroxypropylcellulose) (HPC)): 100 % of control

O=C(CN1CC1)NCCCCCCCCNC(=O)CN1CC1
T/C (dose: 25.0 mg/kg/injection, schedule: Q04DX003 (ip), vehicle: saline with Tween-80): 159 % of control
T/C (dose: 33.0 mg/kg/injection, schedule: Q04DX003 (ip), vehicle: saline with Tween-80): 200 % of control
T/C (dose: 50.0 mg/kg/injection, schedule: Q04DX003 (ip), vehicle: saline with Tween-80): 181 % of control and 209 % of control

O=[N+]([O-])c1ccc(/C=C/Oc2ccccc2)o1
T/C (dose: 50.0 mg/kg/injection, schedule: Q01DX009 (ip), vehicle: suspension in saline): 111 % of control
T/C (dose: 100.0 mg/kg/injection, schedule: Q01DX009 (ip), vehicle: suspension in saline): 110 % of control
T/C (dose: 200.0 mg/kg/injection, schedule: Q01DX009 (ip), vehicle: suspension in saline): 111 % of control

C[Si](C)(C)CSC#N
T/C (dose: 7.5 mg/kg/injection, schedule: Q01DX005 (ip), vehicle: saline with Tween-80): 97 % of control
T/C (dose: 15.0 mg/kg/injection, schedule: Q01DX005 (ip), vehicle: saline with Tween-80): 101 % of control
T/C (dose: 30.0 mg/kg/injection, schedule: Q01DX005 (ip), vehicle: saline with Tween-80): 104 % of control

NC(=O)c1nc[nH]c1F
T/C (dose: 6.25 mg/kg/injection, schedule: Q01DX009 (ip), vehicle: saline with Tween-80): 102 % of control
T/C (dose: 12.5 mg/kg/injection, schedule: Q01DX009 (ip), vehicle: saline with Tween-80): 102 % of control
T/C (dose: 25.0 mg/kg/injection, schedule: Q01DX009 (ip), vehicle: saline with Tween-80): 103 % of control
T/C [5]: 104 % of control

N=C1C=CC(=C(c2ccc(N)cc2)c2ccc(N)cc2)C=C1
T/C (dose: 6.25 mg/kg/injection, schedule: Q01DX005 (ip), vehicle: saline with Tween-80): 98 % of control
T/C (dose: 12.5 mg/kg/injection, schedule: Q01DX005 (ip), vehicle: saline with Tween-80): 98 % of control
